These results are taken from EPA's ToxValDB 9.5 (doi:10.2903/j.efsa.2017.4693).

One data set has as its system Apis mellifera. The settings on record: acute, duration: 48 hours, mortality.
The next data set deals with Canidae. The settings on record: oral, Dog Other, body weight.
The next data set relates to Colinus virginianus. The following applies: acute; oral; mortality.
The subject of the next data set is Daphnia magna. The following applies: chronic/long-term; duration: 21 days; reproduction.
For the next data set, the system named is Hypoaspis aculeifer. The settings on record: chronic/long-term; duration: 14 days; reproduction.
Another data set has as its system Lepomis macrochirus. The following applies: acute; duration: 96 hours; mortality.
The subject of a further data set is Mus musculus. The settings on record: acute; oral; mortality.
Another data set has as its system Oncorhynchus mykiss. The settings on record: chronic/long-term; duration: 87 days; growth.
The subject of a further data set is Tagia sp. The following applies: chronic/long-term; reproduction.
A further data set relates to Typhlodromus pyri. The experiment in a line: LR50; higher = less toxic. The following applies: not reported; mortality.

In brackets after ≈: the same amount, converted by molar mass. Where only a bound is given, the exact number is not on record here.

The term NOAEL denotes the highest tested level that showed no adverse finding. For orientation: LC50 means the concentration lethal to half of the exposed cells or organisms. In the data set with Anas platyrhynchos (reproductive, duration: 23 weeks, F), `COc1ccc(-c2ccccc2)cc1NNC(=O)OC(C)C` [Bifenazate] gave an NOEL of 2.3 mg/kg-day. The LD50 in the data set with Anas platyrhynchos (short-term, oral, feed, mortality) is 106 mg/kg-day; in the data set with Apis mellifera (dermal), 8.5 µg/piece; in the data set with Apis mellifera (oral, unspecified), above 100 µg/piece; in the data set on Colinus virginianus, 1040 mg/kg-day; in the data set on Mus musculus it was above 5000 mg/kg-day; in the data set on Rattus norvegicus (acute, oral, mortality), above 5000 mg/kg-day. In addition, the NOAEL came out at 1 mg/kg-day in the data set with Canidae (chronic, duration: 1 years); 1 mg/kg-day in the data set on Canidae (subchronic, duration: 90 days); 1 mg/kg-day with Rattus norvegicus (chronic, duration: 2 years, hematological); 10 mg/kg-day with Rattus norvegicus (reproduction developmental, body weight); 1.5 mg/kg-day in the data set on Rattus norvegicus (reproduction developmental, food consumption). For the same compound, the NOEC in the data set on Daphnia magna was 0.15 mg/L; in the data set on Hypoaspis aculeifer, 6.56 mg/kg; in the data set on Oncorhynchus mykiss it was 0.017 mg/L; with Tagia sp., 9.75 mg/kg. Besides, the median lethal concentration (LC50) with Lepomis macrochirus amounted to 0.58 µg/mL (≈ 1.93 µM). Besides, in the data set on Typhlodromus pyri, the LR50 stood at 23.8 g/ha.
